Measured values from patent US20210153502A1, “PLANT GROWTH AID AND PLANT GROWING METHOD” (priority 2018, published 2021).

Legend:
[1] = octanol/water, 25° C.; cited from earlier work
House Momotaro (tomato) [2] = assay: Evaluation of crop injury after treatment with nanoparticles (P) or thiazinyl, tomato; format: in vivo; set-up: key: 0: Harmless (healthy); 1: minimally damaged; 2: slightly damaged; 3: moderately damaged; 4: significantly damaged; 5: complete leaf firing; conditions: seedling sheet Z-1, 100 μL spray, thiazinyl 100 ppm
Method: (§1) The results are shown in the rows of “cultivation in paddy field” of Table 3 (rice) and Table 4 (tomato).
(§2) Young seedlings were treated with the nanoparticles (P) or thiazinyl in the same manner as in the method described in <Evaluation of disease resistance>. Then, the degree of crop injury on the leaf surface was evaluated after a predetermined period of time (days (day) shown in Tables 3 and 4, from moving to the paddy field until evaluation). Specifically, crop injury was visually evaluated with the naked eye according to the following criteria.

Hinohikari (rice) [3] = assay: Aerial part growing ratio after treatment with nanoparticles (P) or thiazinyl, rice; format: in vivo; conditions: seedling sheet Z-1, relative to thiazinyl solution of same period
Method: as §1
(§3) Young seedlings were treated with the nanoparticles (P) or thiazinyl in the same manner as in the method described in the <Evaluation of disease resistance>, and the aerial part growing state was evaluated after a predetermined period (shown in Tables 3 and 4, days (day) from moving to the paddy field until evaluation). Specifically, the aerial part growing state was evaluated by measuring the length of each part. The aerial part length in each example treated with the nanoparticles (P) for a predetermined period was divided by the aerial part length in the comparative example treated with a thiazinyl solution for the same period. The calculated value was regarded as the aerial part growing ratio.

Hinohikari (rice) [4] = assay: Evaluation of crop injury after treatment with nanoparticles (P) or thiazinyl, rice; format: in vivo; set-up: key: 0: Harmless (healthy); 1: minimally damaged; 2: slightly damaged; 3: moderately damaged; 4: significantly damaged; 5: complete leaf firing; conditions: seedling sheet Z-1, 100 μL spray, thiazinyl 100 ppm
Method: as §1, §2

PR1 protein [5] = assay: Evaluation of disease resistance: PR1 protein content of sprayed leaf by western blotting, tomato; format: in vivo; conditions: seedling sheet Z-1, band density relative to thiazinyl solution of same period
Method: as §1
(§4) A 1/5000-are pot was filled with 2.9 kg of paddy field soil (clay loam). Ten young seedlings having 2 to 3 leaves grown by the above method were planted in a depth of 2 cm and watered, and the seedlings were placed in water at a depth of 3 cm. The seedlings were left to stand at 25° C. for a predetermined period shown in Table 3 or Table 4 (days (day) from moving to paddy field until evaluation). Each leaf sprayed with the nanoparticle (P) dispersion (or thiazinyl solution) was cut off, immersed in ion exchange water in a container for one minute, and taken out from the container. The liquid in the container was replaced by fresh ion exchange water. The leaf was further subjected to an operation of immersing in the fresh ion exchange water in the container for one minute and taking out of the container three times, whereby the nanoparticles (P) (or thiazinyl) attached to the leaf surface were removed. Then, proteins were extracted from the above leaf using 8-min Plant Tissue Total Protein Extraction Kit (available from Cosmo Bio Co., Ltd.), and the PR1 protein content, which is a marker of disease resistance, in the extracted proteins was determined as follows. The total protein content was quantified with Micro BCATM protein assay kit (available from THERMO Fisher Scientific). […]
(§5) The test was performed five times for each seedling. The PR1 protein content was evaluated by western blotting (including electrophoresis, transferring, and color development) specifically described later. […]
(§6) After a PR1 protein band was detected in the transferring membrane after the operations (1) to (3), the density of the band was quantified with Image J (available from National Institutes of Health, USA). In Examples 11 to 14, the quantified density of the band in each of Examples 11 to 14 was divided by the density of the band in Comparative Example 3. […]

House Momotaro (tomato) [6] = assay: Aerial part growing ratio after treatment with nanoparticles (P) or thiazinyl, tomato; format: in vivo; conditions: seedling sheet Z-1, relative to thiazinyl solution of same period
Method: as §1, §3

PR1 protein [7] = assay: Evaluation of disease resistance: PR1 protein content of sprayed leaf by western blotting, rice; format: in vivo; conditions: seedling sheet Z-1, band density relative to thiazinyl solution of same period
Method: as §1, §4, §5, §6

[8] = 1 day from moving to paddy field
[9] = 3 days from moving to paddy field
[10] = 7 days from moving to paddy field

Row | Structure (SMILES) | Log Pow [1] | other results
1 | C/C(=N/Nc1nc(C)cc(C)n1)c1ccccc1C [ferimzone] | 2.89 | 
2 | CCCSP(=O)(OCC)Oc1cnn(-c2ccc(Cl)cc2)c1 (centres unmarked) [pyraclofos] | 3.77 | 
3 | O=[N+]([O-])c1ccc(NS(=O)(=O)c2ccc(Cl)c(C(F)(F)F)c2)c(Cl)c1 [flusulfamide] | 2.8 | 
4 | N#Cc1c(Cl)c(Cl)c(Cl)c(C#N)c1Cl [TPN, chlorothalonil] | 2.92 | 
5 | Cc1nn(C)c(Cl)c1C(=O)Nc1cccc2c1C(C)OC2(C)C (centres unmarked) [furametpyr] | 2.36 | 
6 | O=C(NC(=O)c1c(F)cccc1F)Nc1cc(Cl)c(OC(F)(F)C(F)C(F)(F)F)cc1Cl (centres unmarked) [lufenuron] | 5.12 | 
7 | N#Cc1ccccc1NC(=O)c1snc(Cl)c1Cl [isotianil] | 2.96 | 
8 | COC(=O)c1c(C(F)F)nc(C(F)(F)F)c(C2=NCCS2)c1CC(C)C [thiazopyr] | 3.89 | 
9 | CC(C)Oc1cccc(NC(=O)c2ccccc2C(F)(F)F)c1 [flutolanil] | 3.17 | 
10 | CC(C)OP(=O)(OC(C)C)SCc1ccccc1 [iprobenfos] | 3.37 | 
11 | CN(C)C(=S)SSC(=S)N(C)C [thiuram] | 1.73 | 
12 | C=CCCCOC(=O)C(CC)N(Cc1ccco1)C(=O)n1ccnc1 (centres unmarked) [pefurazoate] | 3.0 | 
13 | O=C1OCc2c(Cl)c(Cl)c(Cl)c(Cl)c21 [fthalide] | 3.01 | 
14 | COC(=O)NC(=S)Nc1ccccc1NC(=S)NC(=O)OC [thiophanate-methyl] | 1.5 | 
15 | CCOc1ccc(NC(=O)OC(C)C)cc1OCC [diethofencarb] | 3.02 | 
16 | COc1nn(CSP(=S)(OC)OC)c(=O)s1 [methidathion] | 2.2 | 

Row | Structure (SMILES) | Log Pow [1] | other results
17 | CC1(C)[C@H](C(=O)O[C@H](C#N)c2cccc(Oc3ccccc3)c2)[C@@H]1/C=C\C(=O)OC(C(F)(F)F)C(F)(F)F [acrinathrin] | 5.25 | 
18 | O=C1CCc2cccc3c2N1CC3 [pyroquilone] | 1.42 | 
19 | O=C(NC(=O)c1c(F)cccc1F)Nc1ccc(Cl)c(Oc2ncc(C(F)(F)F)cc2Cl)c1 [fluazuron] | 5.1 | 
20 | CC(C)[C@H](Nc1ccc(C(F)(F)F)cc1Cl)C(=O)OC(C#N)c1cccc(Oc2ccccc2)c1 (some centres unmarked) [fluvalinate] | 2.9 | 
21 | CCCCC(C#N)(Cn1cncn1)c1ccc(Cl)cc1 (centres unmarked) [myclobutanil] | 2.9 | 
22 | O=C1C2CC=CCC2C(=O)N1SC(Cl)(Cl)Cl (centres unmarked) [captan] | 2.8 | 
23 | COP(=S)(OC)Oc1ccc([N+](=O)[O-])c(C)c1 [fenitrothion] | 3.43 | 
24 | CCOP(=S)(OCC)Oc1cc(C)nc(C(C)C)n1 [diazinon] | 3.3 | 
25 | CSC(=O)c1cccc2nnsc12 [acibenzolar-S-methyl] | 3.1 | 
26 | Cc1c(F)c(F)c(COC(=O)[C@@H]2[C@H](/C=C(\Cl)C(F)(F)F)C2(C)C)c(F)c1F (racemic) [tefluthrin] | 6.5 | 
27 | O=C(NC(=O)c1c(F)cccc1F)Nc1cc(Cl)c(OC(F)(F)C(F)F)c(Cl)c1 [hexaflumuron] | 4.68 | 
28 | Cc1ccc(NC(=O)c2snnc2C)cc1Cl [thiazinyl] | 3.68 | Crop injury (House Momotaro (tomato) [2]; [8]): 2; Crop injury (House Momotaro (tomato) [2]; [9]): 3; Crop injury (House Momotaro (tomato) [2]; [10]): 3; Aerial part growth ratio (Hinohikari (rice) [3]; 1 day): 1.0; Aerial part growth ratio (Hinohikari (rice) [3]; 3 days): 1.0; Aerial part growth ratio (Hinohikari (rice) [3]; 7 days): 1.0; Crop injury (Hinohikari (rice) [4]; [8]): 3; Crop injury (Hinohikari (rice) [4]; [9]): 4; Crop injury (Hinohikari (rice) [4]; [10]): 4; PR1 protein mass ratio (PR1 protein [5]; 1 day): 1.0; PR1 protein mass ratio (PR1 protein [5]; 3 days): 1.0; PR1 protein mass ratio (PR1 protein [5]; 7 days): 1.0; Aerial part growth ratio (House Momotaro (tomato) [6]; 1 day): 1.0; Aerial part growth ratio (House Momotaro (tomato) [6]; 3 days): 1.0; Aerial part growth ratio (House Momotaro (tomato) [6]; 7 days): 1.0; PR1 protein mass ratio (PR1 protein [7]; 1 day): 1.0; PR1 protein mass ratio (PR1 protein [7]; 3 days): 1.0; PR1 protein mass ratio (PR1 protein [7]; 7 days): 1.0
29 | N#CC(CCc1ccc(Cl)cc1)(Cn1cncn1)c1ccccc1 (centres unmarked) [fenbuconazole] | 3.23 | 
30 | COCC(=O)N(c1c(C)cccc1C)C(C)C(=O)OC (centres unmarked) [metalaxyl] | 1.75 | 
31 | CCOP(=O)(SC(C)CC)N1CCSC1=O (centres unmarked) [fosthiazate] | 1.68 | 
32 | CS/C(C)=N\OC(=O)N(C)SN(C)C(=O)O/N=C(\C)SC [thiodicarb] | 1.62 | 
